Among the data in US10717736B2, “Pyrrole amides as alpha V integrin inhibitors” (BRISTOL-MYERS SQUIBB COMPANY, priority 2016, dated 2020) are IC50 values, retold here.

Where a name gives a salt, the structure may show the parent alone.

The target of one assay is T1, human αVβ6 Integrin (Homo sapiens, UniProt P06756+P18564).
T1 construct: purchased R & D systems 3817-AV
As to the kind of experiment: human αVβ6 HTRF binding assay. On the procedure:
(§1) All binding assays used the HTRF (homogeneous time resolved fluorescence) technology from Cisbio International, therefore all assays are described as HTRF binding assays. The assay results for the Examples are listed above together with the characterization data. The HTRF binding assays are established for the following integrins: human αVβ6, human αVβ1, human αVβ3, human αVβ5, and human αVβ8. All assays used the following assay buffer: 20 mM Tris, pH 7.4, 1 mM MgCl2, 1 mM MnCl2, 0.01% Tween 20, and 0.01% BSA. Alternatively, a SPA-based assay was used for evaluation of receptor binding.
(§2) The following describes the components and a representative procedure for the human αVβ6 HTRF binding assay: Recombinant human αVβ6 Integrin (R & D systems, 3817-AV) was biotinylated. Biotinylated human αVβ6 Integrin was added to assay vessel at a final concentration of 1.25 nM. FITC-conjugated fibronectin (Cytoskeleton, FNR02) was then added at the final concentration of 5 nM. The mixture was centrifuged at 600 rpm for three minutes using Thermo Fisher Heraeus Multifuge X3 centrifuge and then incubated at RT for an hour. Streptavidin Terbium (Cisbio international 610STLB) was then added at the final concentration of 0.625 nM. The resulting mixture was centrifuged at 600 rpm for three minutes using Thermo Fisher Heraeus Multifuge X3 centrifuge and then incubated at room temperature overnight in dark before reading HTRF signals.
On the technique in general: Time-resolved FRET reads energy transfer from a long-lived donor to a nearby acceptor.

The next assay addresses human αVβ1 (Homo sapiens, UniProt P05556+P06756). The assay is described as follows: human αVβ1 HTRF binding assay. On the procedure: as §1, §2
The next assay has as its target human αVβ5 (Homo sapiens, UniProt P06756+P18084). The assay is described as follows: human αVβ5 HTRF binding assay. On the procedure:
as §1, §2

The target in another assay is human αVβ3 (Homo sapiens, UniProt P05106+P06756). As to the kind of experiment: human αVβ3 HTRF binding assay. On the procedure:
as §1, §2

A further assay has as its target human αVβ8 (Homo sapiens, UniProt P06756+P26012). The assay is described as follows: human αVβ8 HTRF binding assay. The method, then:
as §1, §2

T1 sequence (P06756 31-992 limits assumed): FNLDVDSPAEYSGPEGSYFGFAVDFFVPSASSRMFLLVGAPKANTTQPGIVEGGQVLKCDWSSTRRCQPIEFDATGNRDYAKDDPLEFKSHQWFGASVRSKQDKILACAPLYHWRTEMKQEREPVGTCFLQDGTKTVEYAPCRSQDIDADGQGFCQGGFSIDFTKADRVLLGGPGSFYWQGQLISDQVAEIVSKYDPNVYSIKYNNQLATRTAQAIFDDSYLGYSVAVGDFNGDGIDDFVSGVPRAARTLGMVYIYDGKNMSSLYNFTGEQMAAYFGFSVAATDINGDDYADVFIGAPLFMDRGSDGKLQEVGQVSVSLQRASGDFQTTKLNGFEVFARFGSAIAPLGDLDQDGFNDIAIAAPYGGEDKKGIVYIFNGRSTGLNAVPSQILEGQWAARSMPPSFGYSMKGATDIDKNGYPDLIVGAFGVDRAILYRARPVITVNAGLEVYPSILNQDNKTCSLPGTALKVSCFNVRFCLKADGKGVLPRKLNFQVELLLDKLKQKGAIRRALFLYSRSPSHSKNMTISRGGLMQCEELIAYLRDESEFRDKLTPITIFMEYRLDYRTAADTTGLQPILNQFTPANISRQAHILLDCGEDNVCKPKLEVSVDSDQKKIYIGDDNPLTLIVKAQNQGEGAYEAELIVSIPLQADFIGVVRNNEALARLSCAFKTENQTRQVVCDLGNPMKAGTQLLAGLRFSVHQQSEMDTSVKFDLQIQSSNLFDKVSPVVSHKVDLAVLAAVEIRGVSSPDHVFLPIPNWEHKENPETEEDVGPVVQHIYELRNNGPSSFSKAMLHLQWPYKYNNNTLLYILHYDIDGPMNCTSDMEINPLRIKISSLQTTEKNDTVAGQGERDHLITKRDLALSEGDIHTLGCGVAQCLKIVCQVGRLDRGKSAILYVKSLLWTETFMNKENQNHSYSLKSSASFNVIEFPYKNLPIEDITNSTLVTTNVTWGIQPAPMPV
T1 sequence (P18564 22-707 limits assumed): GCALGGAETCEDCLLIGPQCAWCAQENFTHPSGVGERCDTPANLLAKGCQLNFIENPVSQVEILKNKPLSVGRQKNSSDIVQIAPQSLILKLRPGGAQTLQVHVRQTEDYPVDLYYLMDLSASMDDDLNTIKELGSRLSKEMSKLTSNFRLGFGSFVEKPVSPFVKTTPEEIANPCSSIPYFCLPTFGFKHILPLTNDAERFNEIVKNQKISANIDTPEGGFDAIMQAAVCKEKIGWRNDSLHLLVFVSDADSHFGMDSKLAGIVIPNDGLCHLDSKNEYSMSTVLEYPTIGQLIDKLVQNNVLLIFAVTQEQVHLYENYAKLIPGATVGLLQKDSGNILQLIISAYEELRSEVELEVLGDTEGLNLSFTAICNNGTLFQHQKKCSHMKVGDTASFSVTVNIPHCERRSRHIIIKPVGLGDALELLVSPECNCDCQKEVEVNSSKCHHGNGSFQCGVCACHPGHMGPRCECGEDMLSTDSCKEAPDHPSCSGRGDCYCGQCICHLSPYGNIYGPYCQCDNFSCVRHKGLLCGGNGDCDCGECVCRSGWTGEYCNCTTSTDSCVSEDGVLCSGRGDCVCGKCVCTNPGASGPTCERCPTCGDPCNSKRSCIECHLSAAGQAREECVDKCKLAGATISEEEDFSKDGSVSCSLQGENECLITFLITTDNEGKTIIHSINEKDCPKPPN
Sequence of human αVβ5 (P06756 31-992 limits assumed): as the sequence (P06756 31-992 limits assumed) above
Sequence of human αVβ5 (P18084 24-719 limits assumed): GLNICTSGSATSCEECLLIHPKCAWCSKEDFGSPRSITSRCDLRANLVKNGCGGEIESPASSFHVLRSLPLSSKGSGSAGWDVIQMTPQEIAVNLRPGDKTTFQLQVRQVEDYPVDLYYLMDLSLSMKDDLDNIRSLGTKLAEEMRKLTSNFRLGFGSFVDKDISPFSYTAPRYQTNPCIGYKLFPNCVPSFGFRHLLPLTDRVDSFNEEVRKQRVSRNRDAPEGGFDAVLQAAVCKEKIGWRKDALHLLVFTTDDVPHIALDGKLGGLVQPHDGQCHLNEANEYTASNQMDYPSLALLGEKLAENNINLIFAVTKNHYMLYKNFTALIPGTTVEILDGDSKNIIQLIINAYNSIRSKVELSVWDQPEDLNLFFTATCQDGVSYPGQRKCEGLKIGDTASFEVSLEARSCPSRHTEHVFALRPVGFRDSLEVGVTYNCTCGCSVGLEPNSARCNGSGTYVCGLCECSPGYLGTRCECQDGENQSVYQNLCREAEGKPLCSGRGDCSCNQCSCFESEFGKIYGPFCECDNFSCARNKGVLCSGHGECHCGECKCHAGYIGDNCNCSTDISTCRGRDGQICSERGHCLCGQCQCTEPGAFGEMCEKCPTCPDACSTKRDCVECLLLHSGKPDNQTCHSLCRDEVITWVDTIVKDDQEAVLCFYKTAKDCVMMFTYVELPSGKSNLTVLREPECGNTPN
Sequence of human αVβ1 (P06756 31-992 limits assumed): as the sequence (P06756 31-992 limits assumed) above
Sequence of human αVβ1 (P05556 21-728 limits assumed): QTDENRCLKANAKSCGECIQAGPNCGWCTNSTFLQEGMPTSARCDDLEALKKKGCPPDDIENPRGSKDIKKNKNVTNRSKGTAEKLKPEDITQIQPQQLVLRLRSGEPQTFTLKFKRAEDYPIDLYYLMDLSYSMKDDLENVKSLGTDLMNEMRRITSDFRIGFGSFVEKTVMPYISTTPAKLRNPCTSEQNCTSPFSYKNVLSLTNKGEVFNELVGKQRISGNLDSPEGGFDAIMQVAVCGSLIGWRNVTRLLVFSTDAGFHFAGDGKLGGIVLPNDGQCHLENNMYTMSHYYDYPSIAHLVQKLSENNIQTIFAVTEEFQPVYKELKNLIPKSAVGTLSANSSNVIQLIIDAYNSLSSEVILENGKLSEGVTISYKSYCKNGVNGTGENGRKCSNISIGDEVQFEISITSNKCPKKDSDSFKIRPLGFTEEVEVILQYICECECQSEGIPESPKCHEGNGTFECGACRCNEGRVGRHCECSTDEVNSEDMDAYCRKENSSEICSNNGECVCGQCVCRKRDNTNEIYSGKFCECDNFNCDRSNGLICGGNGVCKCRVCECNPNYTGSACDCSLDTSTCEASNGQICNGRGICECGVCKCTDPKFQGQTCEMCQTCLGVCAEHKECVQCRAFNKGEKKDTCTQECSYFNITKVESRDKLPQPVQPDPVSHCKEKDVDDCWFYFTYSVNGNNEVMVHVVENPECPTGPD
Sequence of human αVβ3 (P06756 31-992 limits assumed): as the sequence (P06756 31-992 limits assumed) above
Sequence of human αVβ3 (P05106 27-718 limits assumed): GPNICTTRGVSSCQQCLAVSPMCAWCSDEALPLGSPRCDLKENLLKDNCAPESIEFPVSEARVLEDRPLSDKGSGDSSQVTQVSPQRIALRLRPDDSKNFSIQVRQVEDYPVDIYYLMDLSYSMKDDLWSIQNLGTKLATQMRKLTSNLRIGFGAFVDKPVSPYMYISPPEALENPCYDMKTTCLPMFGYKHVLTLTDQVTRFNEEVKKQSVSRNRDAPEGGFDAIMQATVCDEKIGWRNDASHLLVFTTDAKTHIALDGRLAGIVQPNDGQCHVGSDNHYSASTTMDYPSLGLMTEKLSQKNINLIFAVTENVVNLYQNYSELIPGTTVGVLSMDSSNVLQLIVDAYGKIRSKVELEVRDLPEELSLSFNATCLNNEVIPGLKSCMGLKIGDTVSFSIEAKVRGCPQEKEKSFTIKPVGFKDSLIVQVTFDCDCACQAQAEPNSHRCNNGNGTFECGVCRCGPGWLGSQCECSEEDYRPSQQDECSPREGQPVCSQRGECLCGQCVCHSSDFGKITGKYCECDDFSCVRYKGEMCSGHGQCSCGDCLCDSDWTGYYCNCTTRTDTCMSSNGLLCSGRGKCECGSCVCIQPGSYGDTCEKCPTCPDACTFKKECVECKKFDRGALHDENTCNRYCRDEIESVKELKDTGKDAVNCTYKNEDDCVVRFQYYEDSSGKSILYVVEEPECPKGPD
Sequence of human αVβ8 (P06756 31-992 limits assumed): as the sequence (P06756 31-992 limits assumed) above
Sequence of human αVβ8 (P26012 43-684 limits assumed): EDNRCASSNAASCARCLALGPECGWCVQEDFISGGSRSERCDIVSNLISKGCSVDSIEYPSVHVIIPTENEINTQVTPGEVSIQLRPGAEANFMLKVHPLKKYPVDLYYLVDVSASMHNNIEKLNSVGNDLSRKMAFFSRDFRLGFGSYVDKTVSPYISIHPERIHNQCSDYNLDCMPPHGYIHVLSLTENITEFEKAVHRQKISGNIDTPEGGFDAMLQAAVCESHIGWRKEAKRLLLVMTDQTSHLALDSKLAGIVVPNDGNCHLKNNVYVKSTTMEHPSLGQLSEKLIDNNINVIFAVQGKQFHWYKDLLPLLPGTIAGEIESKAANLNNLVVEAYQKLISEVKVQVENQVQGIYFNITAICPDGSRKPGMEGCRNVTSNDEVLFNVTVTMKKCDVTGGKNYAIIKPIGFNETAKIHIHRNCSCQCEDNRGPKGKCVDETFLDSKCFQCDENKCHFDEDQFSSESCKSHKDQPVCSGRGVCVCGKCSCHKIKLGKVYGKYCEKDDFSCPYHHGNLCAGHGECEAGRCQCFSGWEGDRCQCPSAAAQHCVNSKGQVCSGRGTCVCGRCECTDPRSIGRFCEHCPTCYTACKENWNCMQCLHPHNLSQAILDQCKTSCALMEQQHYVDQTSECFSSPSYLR

The term IC50 denotes the concentration that gives 50% inhibition. At human αVβ6 Integrin, `Cc1ncc([C@H](CC(=O)O)NC(=O)c2cc(CCCc3ccc4c(n3)NCCC4)c[nH]2)cn1` [Example 21] showed an IC50 of 167 nM.

Consider `O=C(O)CC(NC(=O)c1cc(CCc2ccc3c(n2)NCCC3)c[nH]1)c1cncnc1` (stereo not shown) [Example 15], for which the IC50 on human αVβ6 Integrin amounted to 11.9 nM.

On to `Cc1ncc(C(CC(=O)O)NC(=O)c2cc(CCc3ccc4c(n3)NCCC4)c[nH]2)cn1` (stereo not shown) [Example 13], for which the IC50 at human αVβ1 was found to be 4000 nM; at human αVβ6 Integrin it was 6.7 nM; on human αVβ5, 3.84 nM; on human αVβ3, 4.59 nM.

`O=C(O)C[C@H](NC(=O)c1cc(CCc2ccc3c(n2)NCCC3)c[nH]1)c1cc(Cl)cc(Cl)c1` [Example 11] returned an IC50 at human αVβ6 Integrin of 2.03 nM.

On to `O=C(O)C[C@H](NC(=O)c1cc(CCc2ccc3c(n2)NCCC3)c[nH]1)c1cnc2ccccc2c1` [Example 16], for which the IC50 at human αVβ1 came to 360 nM; on human αVβ6 Integrin, 1.1 nM; at human αVβ5, 1.73 nM; on human αVβ3 it was 3.44 nM.

Turning to `O=C(O)C[C@H](NC(=O)c1cc(CCc2ccc3c(n2)NCCC3)c[nH]1)c1ccc2c(c1)OCC2` [Example 17], the IC50 turned out to be 1220 nM on human αVβ1; 4.63 nM on human αVβ6 Integrin; 0.85 nM at human αVβ5; 3760 nM at human αVβ8; 3.68 nM at human αVβ3.

Consider `O=C(N[C@@H](CNC(=O)c1cc(CCc2ccc3c(n2)NCCC3)c[nH]1)C(=O)O)OC1CCCC1` [Example 26, (S)-2-(((Cyclopentyloxy)carbonyl)amino)-3-(4-(2-(5,6,7,8-tetrahydro-1,8-naphthyridin-2-yl)ethyl)-1H-pyrrole-2-carboxamido)propanoic Acid], for which the IC50 is 0.28 nM at human αVβ6 Integrin, 0.09 nM at human αVβ5, 8.78 nM at human αVβ8 and 1.67 nM at human αVβ3.

Take `COc1ccc([C@H](CC(=O)O)NC(=O)c2cc(CCCc3ccc4c(n3)NCCC4)c[nH]2)cn1` [Example 20]: the IC50 at human αVβ6 Integrin came to 22.4 nM.

For `COc1ccc([C@H](CC(=O)O)NC(=O)c2cc(CCC3CCc4cccnc4N3)c[nH]2)cc1F` (mixture of isomers) [Example 2, (3S)-3-(3-Fluoro-4-methoxyphenyl)-3-(4-(2-(1,2,3,4-tetrahydro-1,8-naphthyridin-2-yl)ethyl)-1H-pyrrole-2-carboxamido)propanoic Acid], the IC50 at human αVβ6 Integrin came to 3.75 nM.

Turning to `CC(C)(C)c1cc(Br)cc([C@H](CC(=O)O)NC(=O)c2cc(CCc3ccc4c(n3)NCCC4)c[nH]2)c1` [Example 12], the IC50 on human αVβ6 Integrin came to 0.63 nM.

Compound `COc1ccc([C@H](CC(=O)O)NC(=O)c2cc(CCc3ccc4c(n3)NCCC4)c[nH]2)cn1` [Example 7] returned an IC50 on human αVβ6 Integrin of 4 nM.

For `O=C(O)CC(NC(=O)c1cc(CCc2ccc3c(n2)NCCC3)c[nH]1)c1cnc2ccccc2n1` (stereo not shown) [Example 18], at human αVβ6 Integrin, the IC50 turned out to be 25.9 nM.

Compound `COc1ccc([C@H](CC(=O)O)NC(=O)c2cc(CCc3ccc4c(n3)NCCC4)cn2C)cn1` [Example 8] registered an IC50 on human αVβ6 Integrin of 22.5 nM.

Take `CCn1cc(CCc2ccc3c(n2)NCCC3)cc1C(=O)N[C@@H](CC(=O)O)c1ccc(OC)nc1` [Example 9]: the IC50 on human αVβ6 Integrin turned out to be 46.8 nM.

Consider `COc1ccc([C@H](CC(=O)O)NC(=O)c2cc(CCc3ccc4c(n3)NCCC4)c(C)[nH]2)cn1` [Example 10], for which the IC50 at human αVβ6 Integrin came out at 3.96 nM; on human αVβ5, 10.4 nM; on human αVβ8 it was 415 nM; on human αVβ3 it was 2.49 nM.

On to `CCn1cc(CCc2ccc3c(n2)NCCC3)cc1C(=O)N[C@@H](CC(=O)O)c1ccc(OC)c(F)c1` [Example 5], for which the IC50 on human αVβ6 Integrin stood at 50.3 nM.

Consider `Cc1cc(C)c(S(=O)(=O)N[C@@H](CNC(=O)c2cc(CCc3ccc4c(n3)NCCC4)c[nH]2)C(=O)O)c(C)c1` [Example 23, (S)-3-(4-(2-(5,6,7,8-Tetrahydro-1,8-naphthyridin-2-yl)ethyl)-1H-pyrrole-2-carboxamido)-2-((2,4,6-trimethylphenyl)sulfonamido)propanoic Acid], for which the IC50 is 1.02 nM on human αVβ6 Integrin, 0.54 nM on human αVβ5, 9.06 nM on human αVβ8 and 5.36 nM at human αVβ3.

The compound `COc1ccc([C@H](CC(=O)O)NC(=O)c2cc(CCc3ccc4c(n3)NCCC4)c(C)[nH]2)cc1F` [Example 6] yielded an IC50 on human αVβ6 Integrin of 5.93 nM.

`O=C(N[C@@H](CNC(=O)c1cc(CCc2ccc3c(n2)NCCC3)c[nH]1)C(=O)O)OCc1ccccc1` [Example 25, (S)-2-(((Benzyloxy)carbonyl)amino)-3-(4-(2-(5,6,7,8-tetrahydro-1,8-naphthyridin-2-yl)ethyl)-1H-pyrrole-2-carboxamido)propanoic Acid, TFA]: the IC50 is 0.34 nM on human αVβ6 Integrin, 0.16 nM on human αVβ5, 12.6 nM at human αVβ8 and 1.5 nM at human αVβ3.

With `COc1ccc([C@H](CC(=O)O)NC(=O)c2cc(CCc3ccc4c(n3)NCCC4)c[nH]2)cc1F` [Example 1, (S)-3-(3-Fluoro-4-methoxyphenyl)-3-(4-(2-(5,6,7,8-tetrahydro-1,8-naphthyridin-2-yl)ethyl)-1H-pyrrole-2-carboxamido)propanoic Acid], on human αVβ6 Integrin, the IC50 is 2.55 nM.

Consider `COc1ccc([C@H](CC(=O)O)NC(=O)c2cc(CCc3ccc4c(n3)NCCC4)cn2C)cc1F` [Example 4], for which the IC50 on human αVβ6 Integrin came out at 22.1 nM.

The compound `COc1ccc([C@@H](CC(=O)O)NC(=O)c2cc(CCc3ccc4c(n3)NCCC4)c[nH]2)cc1F` [Example 3] had an IC50 at human αVβ6 Integrin of 229 nM.

Turning to `COc1ncc(C(CC(=O)O)NC(=O)c2cc(CCc3ccc4c(n3)NCCC4)c[nH]2)cn1` (stereo not shown) [Example 14], the half-inhibitory concentration (IC50) at human αVβ1 worked out at 3710 nM; at human αVβ6 Integrin, 7.17 nM; at human αVβ5, 5.68 nM; on human αVβ3, 4.69 nM.

For the compound `Cc1cc(C)c(S(=O)(=O)N[C@@H](CNC(=O)c2cc(CCC3CCc4cccnc4N3)c[nH]2)C(=O)O)c(C)c1` (mixture of isomers) [Example 24, (2S)-3-(4-(2-(1,2,3,4-Tetrahydro-1,8-naphthyridin-2-yl)ethyl)-1H-pyrrole-2-carboxamido)-2-((2,4,6-trimethylphenyl)sulfonamido)propanoic Acid], the IC50 on human αVβ1 worked out at 3.03 nM; on human αVβ6 Integrin, 0.61 nM; on human αVβ5, 0.23 nM; on human αVβ8, 11.9 nM; on human αVβ3, 2 nM.

`COc1ccc([C@H](CC(=O)O)NC(=O)c2cc(-c3ccc4c(n3)NCCC4)c[nH]2)cc1F` [Example 19] showed an IC50 on human αVβ6 Integrin of 81 nM.

For the compound `COc1ncc([C@H](CC(=O)O)NC(=O)c2cc(CCCc3ccc4c(n3)NCCC4)c[nH]2)cn1` [Example 22], the IC50 at human αVβ6 Integrin was determined as 14.5 nM.
